From ChEMBL document CHEMBL5380834, “Design, Synthesis, and Biological Evaluation of Androgen Receptor (AR) Antagonist-Heat Shock Protein 90 (Hsp90) Inhibitor Conjugates for Targeted Therapy of Castration-Resistant Prostate Cancer” (J Med Chem, 2023)
pIC50: −log10 of the molar value. The source made the active and inactive calls. The rule behind the calls is not given here.

What was measured:
[1] = test system: LNCaP; assay: Antitumor activity against human LNCaP cells xenografted in BALB/c nude mouse assessed as downregulation of FKBP5 level at 5 mg/kg, ip administered once every 4th day for 3 weeks and measured at 2 hrs post dose; format: functional, organism-based
[2] = test system: LNCaP; assay: Induction of apoptosis in human LNCaP cells assessed as increase in PARP level at 1 uM measured after 48 hrs by Western blot analysis; format: functional, cell-based
[3] = Biodistribution in BALB/c mouse tumor xenografted with human 22Rv1 cells at 2.5 mg/kg, iv measured at 12 hrs; format: ADME, organism-based, Neoplasm, CWR22R; conditions: in vivo
[4] = Biodistribution in BALB/c mouse liver xenografted with human 22Rv1 cells at 2.5 mg/kg, iv measured at 0.5 to 1 hrs; format: ADME, organism-based, CWR22R; conditions: in vivo, time 0.5-1 hrs
[5] = test system: LNCaP; assay: Antitumor activity against human LNCaP cells xenografted in BALB/c nude mouse assessed as downregulation of AR-FL level at 5 mg/kg, ip administered once every 4th day for 3 weeks and measured at 2 hrs post dose; format: functional, organism-based
[6] = Biodistribution in BALB/c mouse muscle tissue xenografted with human 22Rv1 cells at 2.5 mg/kg, iv measured at 0.5 to 1 hrs; format: ADME, organism-based, CWR22R; conditions: in vivo, time 0.5-1 hrs
[7] = biological target: T1, Androgen receptor (Homo sapiens) (UniProt P10275); assay: Induction of full length AR degradation in human RWPE-1 cells at 10 uM measured for 24 hrs by Western blot analysis; format: cell-based
T1 sequence (whole entry): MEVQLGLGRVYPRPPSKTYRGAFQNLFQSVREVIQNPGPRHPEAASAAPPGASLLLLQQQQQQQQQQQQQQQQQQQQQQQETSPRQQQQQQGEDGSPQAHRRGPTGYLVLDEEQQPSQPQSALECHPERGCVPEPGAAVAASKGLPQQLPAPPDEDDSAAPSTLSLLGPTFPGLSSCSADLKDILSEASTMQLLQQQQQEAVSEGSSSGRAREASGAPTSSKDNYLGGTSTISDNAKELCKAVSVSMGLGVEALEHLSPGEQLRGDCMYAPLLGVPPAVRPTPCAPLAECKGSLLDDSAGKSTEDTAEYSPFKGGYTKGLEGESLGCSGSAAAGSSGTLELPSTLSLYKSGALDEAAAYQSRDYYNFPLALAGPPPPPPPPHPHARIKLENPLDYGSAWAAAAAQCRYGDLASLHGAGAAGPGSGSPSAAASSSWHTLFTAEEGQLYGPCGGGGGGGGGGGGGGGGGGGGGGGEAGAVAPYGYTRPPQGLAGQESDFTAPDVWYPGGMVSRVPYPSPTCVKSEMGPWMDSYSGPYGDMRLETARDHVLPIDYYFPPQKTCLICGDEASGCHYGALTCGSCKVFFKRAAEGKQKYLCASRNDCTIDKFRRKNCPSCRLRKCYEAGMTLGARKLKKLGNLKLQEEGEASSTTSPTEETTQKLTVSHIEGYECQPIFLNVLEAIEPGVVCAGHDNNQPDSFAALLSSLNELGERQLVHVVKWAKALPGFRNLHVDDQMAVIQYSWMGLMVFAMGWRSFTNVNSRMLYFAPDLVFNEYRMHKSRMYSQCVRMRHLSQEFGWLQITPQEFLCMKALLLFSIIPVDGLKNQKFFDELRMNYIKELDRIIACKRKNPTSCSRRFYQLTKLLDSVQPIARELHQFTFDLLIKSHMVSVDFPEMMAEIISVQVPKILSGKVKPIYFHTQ

[8] = Toxicity in ICR mouse assessed as spleen damage at 30 to 50 mg/kg, iv administered every second day for 14 days; format: organism-based; conditions: in vivo, 336 h, dose 30-50 mg/kg, time 14 day
[9] = test system: LNCaP; assay: Induction of apoptosis in human LNCaP cells assessed as increase in caspase-3 level at 1 uM measured after 48 hrs by Western blot analysis; format: functional, cell-based
[10] = test system: CWR22R; assay: Induction of apoptosis in human 22Rv1 cells assessed as increase in caspase-3 level at 1 uM measured after 48 hrs by Western blot analysis; format: functional, cell-based
[11] = test system: Androgen receptor (Homo sapiens), P10275 [UNDEFINED MUTATION]; assay: Induction of AR-V7 degradation in human 22Rv1 cells measured upto 24 hrs by Western blot analysis; format: cell-based; conditions: dose 1000.0 nM
[12] = test system: LNCaP; assay: Downregulation of AR-regulated FKBP5 protein level in human LNCaP cells measured for 48 hrs in presence of AR agonist, R1881 in charcoal stripped serum by Western blot analysis; format: functional, cell-based; conditions: dose 300-1000 nM
[13] = test system: CWR22R; assay: Antitumor activity against human 22Rv1 cells xenografted in BALB/c nude mouse assessed as downregulation of AR-FL level at 2.5 mg/kg, ip administered once every 4th day for 3 weeks; format: functional, organism-based
[14] = test system: LNCaP; assay: Antitumor activity against human LNCaP cells xenografted in BALB/c nude mouse assessed as inhibition of tumor growth at 2.5 to 5 mg/kg, po administered once every 4th day for 3 weeks; format: functional, organism-based; conditions: dose 2.5-5 mg/kg
[15] = Toxicity in ICR mouse assessed as liver damage at 30 to 50 mg/kg, iv administered every second day for 14 days; format: organism-based; conditions: in vivo, 336 h, dose 30-50 mg/kg, time 14 day
[16] = Biodistribution in BALB/c mouse plasma xenografted with human 22Rv1 cells at 2.5 mg/kg, iv measured at 0.5 to 1 hrs; format: ADME, organism-based, CWR22R; conditions: in vivo, time 0.5-1 hrs
[17] = biological target: T1, Androgen receptor (Homo sapiens); assay: Induction of full length AR degradation in human LNCaP cells assessed as maximum degradation at 100 nM measured after 12 hrs relative to control; format: cell-based
[18] = test system: LNCaP; assay: Downregulation of AR-regulated TMPRSS2 protein level in human LNCaP cells measured for 48 hrs in presence of AR agonist, R1881 in charcoal stripped serum by Western blot analysis; format: functional, cell-based; conditions: dose 300-1000 nM
[19] = test system: Androgen receptor (Homo sapiens), P10275 [UNDEFINED MUTATION]; assay: Induction of AR-V7 degradation in human 22Rv1 cells at 100 nM by Western blot analysis; format: cell-based; conditions: time <= 48.0 hrs, TDE = time-dependent effect
[20] = Toxicity in ICR mouse assessed as lung damage at 30 to 50 mg/kg, iv administered every second day for 14 days; format: organism-based; conditions: in vivo, 336 h, dose 30-50 mg/kg, time 14 day
[21] = Toxicity in BALB/c nude mouse xenografted with human LNCaP cells assessed as animal weight loss at 5 mg/kg, ip administered once every 4th day for 3 weeks; format: organism-based; conditions: in vivo, 504 h
[22] = test system: LNCaP; assay: Antitumor activity against human LNCaP cells xenografted in BALB/c nude mouse assessed as downregulation of TMPRSS2 level at 5 mg/kg, ip administered once every 4th day for 3 weeks and measured at 2 hrs post dose; format: functional, organism-based
[23] = Biodistribution in BALB/c mouse testis xenografted with human 22Rv1 cells at 2.5 mg/kg, iv measured at 0.5 to 1 hrs; format: ADME, organism-based, CWR22R; conditions: in vivo, time 0.5-1 hrs
[24] = Biodistribution in BALB/c mouse spleen xenografted with human 22Rv1 cells at 2.5 mg/kg, iv measured at 0.5 to 1 hrs; format: ADME, organism-based, CWR22R; conditions: in vivo, time 0.5-1 hrs
[25] = test system: LNCaP; assay: Cytotoxicity against AR-positive human LNCaP cells assessed as inhibition of cell growth incubated for 5 days in presence of AR agonist, R1881 in charcoal stripped serum by WST-1 assay; format: functional, cell-based; conditions: 120 h
[26] = test system: CWR22R; assay: Antitumor activity against human 22Rv1 cells xenografted in BALB/c nude mouse assessed as reduction in tumor growth at 5 mg/kg, ip administered once every 4th day for 3 weeks; format: functional, organism-based

## CC(C)c1cc(-c2n[nH]c(=O)n2-c2ccc(CN3CCN(CC4CCN(c5ccc(C(=O)N[C@H]6CC[C@H](Oc7ccc(C#N)c(Cl)c7)CC6)nn5)CC4)CC3)cc2)c(O)cc1O
[1]
  Activity: Active
[2]
  Activity: Active
[3]
  Drug uptake: Active
[4]
  Drug uptake: Active
[5]
  Activity: Active
[6]
  Drug uptake: Active
[7]
  Activity: inactive
[8]
  Activity: Non-Toxic
[9]
  Activity: Active
[10]
  Activity: Active
[11]
  Activity: Dose-Dependent Effect
[12]
  Activity: Dose-Dependent Effect
[13]
  Activity: Active
[14]
  Activity: Active
[15]
  Activity: Non-Toxic
[16]
  Drug uptake: Active
[17]
  Activity: > 90%
[18]
  Activity: Dose-Dependent Effect
[19]
  Activity: Tde
[20]
  Activity: Non-Toxic
[21]
  Activity: 10%
[22]
  Activity: Active
[23]
  Drug uptake: Active
[24]
  Drug uptake: Active
[25]
  pIC50: 6.77
[26]
  Activity: Active
